Source: ChEMBL document CHEMBL1909046, “DrugMatrix in vitro pharmacology data”

Experiments:
[1] = biological target: 5-hydroxytryptamine receptor 2B (Homo sapiens, UniProt P41595); format: cell membranes, CHO-K1, Membrane; note: in other assays of this panel Not Active means under 50% inhibition at 10 µM
[2] = biological target: Vascular endothelial growth factor receptor 1 (Homo sapiens, UniProt P17948); format: cell-based; details: huvec; note: in other assays of this panel Not Active means under 50% inhibition at 10 µM
[3] = biological target: T1, C-C chemokine receptor type 4 (Homo sapiens, UniProt P51679); format: cell membranes, Chem-1, Membrane; details: chem-1; note: in other assays of this panel Not Active means under 50% inhibition at 10 µM
T1 sequence (P51679 whole entry): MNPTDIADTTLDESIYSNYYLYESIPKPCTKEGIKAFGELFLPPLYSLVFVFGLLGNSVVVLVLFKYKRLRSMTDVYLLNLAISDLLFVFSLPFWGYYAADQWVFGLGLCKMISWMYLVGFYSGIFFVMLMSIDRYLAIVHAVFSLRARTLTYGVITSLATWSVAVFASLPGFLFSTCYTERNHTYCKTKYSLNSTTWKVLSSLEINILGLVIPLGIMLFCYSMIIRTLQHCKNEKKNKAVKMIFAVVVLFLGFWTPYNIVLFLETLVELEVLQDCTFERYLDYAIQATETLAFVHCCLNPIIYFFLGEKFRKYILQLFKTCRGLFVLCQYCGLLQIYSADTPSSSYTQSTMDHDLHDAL

[4] = DRUGMATRIX: GABAA, Chloride Channel, TBOB radioligand binding (ligand: [3H] TBOB); format: cell membranes, Rattus norvegicus, Wistar, Cerebral cortex, Membrane; details: Not Active = under 50% inhibition at 10 µM
[5] = DRUGMATRIX: Potassium Channel [KATP] radioligand binding (ligand: [3H] Glyburide); format: cell membranes, Membrane; details: hit-t15; Not Active = under 50% inhibition at 10 µM
[6] = biological target: T2, Adenosine receptor A3 (Homo sapiens, UniProt P0DMS8); format: cell membranes, CHO-K1, Membrane;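 note: radioligand binding assay with AB-MECA serving as the labeled ligand; in other assays of this panel Not Active means under 50% inhibition at 10 µM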
T2 sequence (P0DMS8 whole entry): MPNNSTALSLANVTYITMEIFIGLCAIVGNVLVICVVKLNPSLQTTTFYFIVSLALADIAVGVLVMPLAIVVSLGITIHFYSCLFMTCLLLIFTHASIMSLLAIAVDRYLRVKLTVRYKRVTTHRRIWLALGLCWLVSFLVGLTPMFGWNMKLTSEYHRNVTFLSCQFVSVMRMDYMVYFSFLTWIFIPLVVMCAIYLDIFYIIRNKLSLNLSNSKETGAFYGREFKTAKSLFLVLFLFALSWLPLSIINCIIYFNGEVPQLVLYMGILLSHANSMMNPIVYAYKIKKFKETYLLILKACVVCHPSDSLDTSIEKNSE

Sequence of 5-hydroxytryptamine receptor 2B (P41595 whole entry): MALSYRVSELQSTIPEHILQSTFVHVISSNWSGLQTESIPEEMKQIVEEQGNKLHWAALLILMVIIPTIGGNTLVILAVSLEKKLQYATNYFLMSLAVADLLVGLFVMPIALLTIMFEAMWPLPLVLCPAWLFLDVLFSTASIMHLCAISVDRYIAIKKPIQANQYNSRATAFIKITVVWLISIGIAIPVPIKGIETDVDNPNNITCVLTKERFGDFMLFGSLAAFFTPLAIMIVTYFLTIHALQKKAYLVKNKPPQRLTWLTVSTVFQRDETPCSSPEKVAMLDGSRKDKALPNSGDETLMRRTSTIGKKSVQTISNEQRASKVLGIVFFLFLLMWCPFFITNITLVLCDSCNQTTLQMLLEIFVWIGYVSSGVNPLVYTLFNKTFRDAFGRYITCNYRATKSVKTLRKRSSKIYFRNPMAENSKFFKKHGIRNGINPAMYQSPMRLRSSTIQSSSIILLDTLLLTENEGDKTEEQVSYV
Sequence of Vascular endothelial growth factor receptor 1 (P17948 whole entry): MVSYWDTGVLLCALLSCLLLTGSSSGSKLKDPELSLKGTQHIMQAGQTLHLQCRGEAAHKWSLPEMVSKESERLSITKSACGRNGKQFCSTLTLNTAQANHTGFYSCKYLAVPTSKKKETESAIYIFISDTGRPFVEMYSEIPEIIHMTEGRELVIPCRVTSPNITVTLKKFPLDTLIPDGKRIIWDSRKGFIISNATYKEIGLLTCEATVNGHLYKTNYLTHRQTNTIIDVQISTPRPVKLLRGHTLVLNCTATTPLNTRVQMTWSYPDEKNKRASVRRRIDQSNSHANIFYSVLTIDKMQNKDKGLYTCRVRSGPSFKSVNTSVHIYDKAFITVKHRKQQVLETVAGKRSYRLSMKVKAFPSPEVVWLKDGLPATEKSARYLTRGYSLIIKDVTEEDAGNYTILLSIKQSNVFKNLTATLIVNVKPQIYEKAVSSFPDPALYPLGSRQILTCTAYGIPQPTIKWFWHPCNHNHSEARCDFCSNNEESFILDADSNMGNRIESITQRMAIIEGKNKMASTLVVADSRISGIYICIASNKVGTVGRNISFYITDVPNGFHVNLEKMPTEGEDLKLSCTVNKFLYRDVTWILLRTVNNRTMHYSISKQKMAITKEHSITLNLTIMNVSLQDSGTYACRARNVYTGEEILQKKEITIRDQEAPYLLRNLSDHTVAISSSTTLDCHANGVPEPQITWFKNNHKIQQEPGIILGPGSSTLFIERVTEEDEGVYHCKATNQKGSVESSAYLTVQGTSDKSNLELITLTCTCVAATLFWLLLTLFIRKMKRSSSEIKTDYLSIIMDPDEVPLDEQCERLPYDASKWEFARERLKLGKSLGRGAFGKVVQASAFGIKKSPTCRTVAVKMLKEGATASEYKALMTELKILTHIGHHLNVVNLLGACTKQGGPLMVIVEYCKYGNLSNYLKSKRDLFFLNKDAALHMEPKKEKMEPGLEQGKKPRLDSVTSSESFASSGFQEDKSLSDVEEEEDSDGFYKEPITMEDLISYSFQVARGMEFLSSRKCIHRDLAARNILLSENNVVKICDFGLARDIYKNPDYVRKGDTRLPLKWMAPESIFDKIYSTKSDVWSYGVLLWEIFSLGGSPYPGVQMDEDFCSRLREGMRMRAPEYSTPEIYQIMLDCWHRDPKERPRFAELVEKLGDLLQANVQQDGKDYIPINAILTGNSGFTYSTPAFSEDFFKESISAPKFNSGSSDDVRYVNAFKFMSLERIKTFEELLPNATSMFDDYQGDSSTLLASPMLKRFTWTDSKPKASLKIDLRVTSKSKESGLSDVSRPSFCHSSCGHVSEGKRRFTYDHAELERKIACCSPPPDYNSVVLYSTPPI

Compound | IC50 ([1]; read-out: IC50) [µM] | Ki ([1]; read-out: Ki) [µM] | IC50 [2] | IC50 [3] | IC50 [4] | Ki [4] | IC50 [5] | Ki [5] | IC50 ([6]; cho-k1) | IC50 ([1]; cho-k1) | IC50 ([6]; read-out: IC50) [µM] | Ki ([6]; read-out: Ki) [µM] | Ki ([1]; cho-k1) | Ki [2] | Ki [3] | Ki ([6]; cho-k1)
Cc1cccc(N(C)C(=S)Oc2ccc3ccccc3c2)c1 [TOLNAFTATE] | 2.01 | 1.28 | Not Active | Not Active | Not Active | Not Active | Not Active | Not Active | Not Active | – | – | – | – | – | – | –
NC[C@H]1CC[C@H](C(=O)O)CC1 [TRANEXAMIC ACID] | – | – | Not Active | Not Active | Not Active | Not Active | Not Active | Not Active | Not Active | Not Active | – | – | – | – | – | –
CC1(C)O[C@@H]2C[C@H]3[C@@H]4CCC5=CC(=O)C=C[C@]5(C)[C@@]4(F)[C@@H](O)C[C@]3(C)[C@]2(C(=O)CO)O1 [TRIAMCINOLONE ACETONIDE] | – | – | Not Active | Not Active | Not Active | Not Active | Not Active | Not Active | Not Active | Not Active | – | – | – | – | – | –
NS(=O)(=O)c1cc2c(cc1Cl)NC(C(Cl)Cl)NS2(=O)=O (configuration not stated) [TRICHLORMETHIAZIDE] | – | – | Not Active | Not Active | Not Active | Not Active | Not Active | Not Active | Not Active | Not Active | – | – | – | – | – | –
Cc1c(C)c2c(c(C)c1O)CCC(C)(COc1ccc(CC3SC(=O)NC3=O)cc1)O2 (configuration not stated) [TROGLITAZONE] | 1.31 | 0.835 | Not Active | Not Active | Not Active | Not Active | Not Active | Not Active | – | – | 5.21 | 2.94 | – | – | – | –
N[C@@H]1[C@H]2CN(c3nc4c(cc3F)c(=O)c(C(=O)O)cn4-c3ccc(F)cc3F)C[C@@H]12 [TROVAFLOXACIN] | – | – | Not Active | Not Active | Not Active | Not Active | Not Active | Not Active | Not Active | Not Active | – | – | – | – | – | –
N#CC(C#N)=Cc1ccc(O)c(O)c1 [TYRPHOSTIN 23] | – | – | Not Active | Not Active | Not Active | Not Active | Not Active | Not Active | Not Active | Not Active | – | – | – | – | – | –
CC[C@]1(O)C[C@H]2CN(CCc3c([nH]c4ccccc34)[C@@](C(=O)OC)(c3cc4c(cc3OC)N(C=O)[C@H]3[C@@](O)(C(=O)OC)[C@H](OC(C)=O)[C@]5(CC)C=CCN6CC[C@]43[C@@H]65)C2)C1 [VINCRISTINE] | – | – | Not Active | Not Active | Not Active | Not Active | Not Active | Not Active | Not Active | Not Active | – | – | – | – | – | –
CCCOc1ccccc1-c1nc2nn[nH]c2c(=O)[nH]1 [ZAPRINAST] | – | – | Not Active | Not Active | Not Active | Not Active | Not Active | Not Active | Not Active | Not Active | – | – | – | – | – | –
SODIUM NITROPRUSSIDE | – | – | Not Active | Not Active | Not Active | Not Active | Not Active | Not Active | Not Active | Not Active | – | – | Not Active | Not Active | Not Active | Not Active
